From PMC9552147 (Nature Communications, 2022)
In brackets after ≈: the same amount, converted by molar mass. Several values for one entry are separate records, joined by “and”; a condition that tells them apart may be missing. Identical values can stand only once. Like-named read-outs stand apart in the source and are kept apart here.

How the values were obtained:
HepG2 cells [1] = tested on: HepG2 cells
[2] = tested on: SDHA production (cytoplasmic ribosomes) in HepG2 cells
Procedure: (§1) Cells were trypsinized in 0.05% trypsin-EDTA (Gibco) and re-suspended in 10 mL growth medium. Cells were filtered through a 40 µm filter and seeded in collagen-coated 96-well plates (Life technologies #A11428-03) at 3500 cells/well in a volume of 170 µL/well with plates agitated upon cell addition to ensure even distribution. […] The plates were incubated an additional 72 h after which the medium was gently aspirated and replaced with 4% paraformaldehyde (100 µL/well) prepared in Dulbecco’s PBS. After 20 min fixation, the medium was removed, and wells washed three times with 200 µL/well PBS. Wells were treated for 5 min with 0.5% acetic acid (100 μL/well), wells were washed with 200 μL/well PBS and subsequently treated with permeabilization buffer (0.1 % Triton X-100) (100 μL/well) for 30 min. Buffer was removed and replaced with 2× blocking buffer from the ab110217 MitoBiogenesis™ In-Cell ELISA Kit (Abcam). After 2 h incubation, primary antibody was added (100 μl/well) in 1× blocking buffer per manufacturer’s recommendation except for the background control wells which received 100 μl/well 1× blocking buffer only. […] Alkaline phosphatase/horse radish peroxidase-labeled secondary antibody solution prepared according to the manufacturer’s instructions in 1× blocking buffer was added at 100 μl/well to all wells. After 1 h incubation, wells were washed 4 times with wash buffer (200 μl/well) followed by addition of 100 μl/well freshly prepared per manufacturer’s recommendation alkaline peroxidase development solution. […] The reagent was removed, and 100 μl/well horse radish peroxidase development solution added. […] The development solution was completely removed, and plates blotted to dryness after which 1× Janus green stain (50 μl/well) was added. […] Data was interpreted per manufacturer’s instructions and plotted in GraphPad Prism to calculate IC20 and IC50 values for Cox-I/SDHA and cell viability.

M. tuberculosis H37Rv [3] = assay: microbe, parasite or virus in culture; assay type: cell-based, Mycobacterium tuberculosis; conditions: for MIC: Mycobacterium tuberculosis, H37RV
[4] = tested on: M. tuberculosis H37Rv:luc within THP1 monocytes; assay: microbe, parasite or virus in culture; assay type: cell-based; conditions: Mycobacterium tuberculosis
HepG2 cells [5] = assay: cells; assay type: cell-based; conditions: Homo sapiens
Procedure: as §1

in vitro = conditions: human, HepG2 IC50 (cytotoxicity)
HepG2 cells [6] = assay: cells; conditions: Homo sapiens
[7] = tested on: COX1 production (mitochondrial ribosomes) in HepG2 cells; conditions: for COX1 production: human; for IC50: read-out: Cox IC50
Procedure: as §1

[8] = tested on: COX1 production (mitochondrial ribosomes) in HepG2 cells; assay: cells; conditions: Homo sapiens
Procedure: as §1

[9] = tested on: SDHA production (cytoplasmic ribosomes) in HepG2 cells; assay: cells; conditions: Homo sapiens
Procedure: as §1

[10] = tested on: lysine biosynthetic pathway metabolites in M. tuberculosis; assay type: cell-based, Mycobacterium tuberculosis
M. tuberculosis H37Rv [11] = tested on: M. tuberculosis H37Rv
M. tuberculosis H37Rv [12] = assay type: cell-based, Mycobacterium tuberculosis; set-up: MIC, No Lysine / MIC, No Lysine, Ave: unit not given beside the values
M. tuberculosis = tested on: M. tuberculosis; set-up: species or system C57BL/6 mice; conditions: in vivo, 100 mg/kg
M. tuberculosis H37Rv [13] = tested on: M. tuberculosis H37Rv; set-up: species or system C57BL/6 mice; conditions: in vivo, 30 mg/kg
M. tuberculosis H37Rv [14] = tested on: M. tuberculosis H37Rv; set-up: species or system BALB/c mice; conditions: in vivo

Structure (SMILES): Nc1cc2c(c(F)n1)C(=O)N(C1CCCCC1)C2 [Compound 2]
- IC50 (HepG2 cells [1]): 7.94 µM
- SDHA production ([2]; human): blocked expression of both COX1 and SDHA
- IC50 ([2]; read-out: SDH-A IC50): 2.89 µM and 3.53 µM and 3.87 µM
- WT MIC (M. tuberculosis H37Rv [3]): 0.74 µM
- MIC (M. tuberculosis H37Rv [3]; read-out: MIC (µM), single replicate): 0.6 µM (≈ 0.15 µg/mL)
- MIC (M. tuberculosis H37Rv [3]; read-out: MIC, Geo Mean): 0.6 µM (≈ 0.15 µg/mL)
- MIC (M. tuberculosis H37Rv [3]; read-out: MIC, Mean): 0.6 µM (≈ 0.15 µg/mL)
- MIC (M. tuberculosis H37Rv [3]; read-out: MIC, Median): 0.6 µM (≈ 0.15 µg/mL)
- MIC (M. tuberculosis H37Rv [3]; read-out: WT MIC): 0.89 µM (≈ 0.222 µg/mL)
- MIC (M. tuberculosis H37Rv [3]; read-out: WT MIC, Ave): 0.82 µM (≈ 0.204 µg/mL)
- MIC [4]: 0.71 µM (≈ 0.177 µg/mL)
- IC50 (HepG2 cells [5]; HepG2, read-out: JG IC50, Ave): 3.3 µM
- IC50 (in vitro): 11 µM
- IC50 (HepG2 cells [6]; HepG2, read-out: IC50 (µM), Geo Mean): 10.7 µM
- IC50 (HepG2 cells [6]; HepG2, read-out: IC50 (µM), Mean): 11.8 µM
- COX1 production [7]: blocked expression of both COX1 and SDHA
- IC50 [7]: 3.54 µM and 4.59 µM and 3.47 µM
- IC50 ([8]; HepG2, read-out: Cox IC50): 2.67 µM
- IC50 ([8]; HepG2, read-out: Cox IC50, Ave): 3.6 µM
- IC50 ([9]; HepG2, read-out: SDH-A IC50): 3.04 µM
- IC50 ([9]; HepG2, read-out: SDH-A IC50, Ave): 3.3 µM

Structure (SMILES): Nc1ncc2c(n1)CC(C1CCC1)C2=O (centres unmarked) [Compound 9]
- Acetyl-amino-oxopimelate, Raw data [10]: 6696.89 and 6125.64 and 5614.65
- Acetyl-aminoadipate, Raw data [10]: 373220.66 and 356398.25 and 363487.19
- Acetyl-diaminopimelate, Raw data [10]: 268291.72 and 294087.29 and 265596.05
- Allysine, Raw data [10]: 6339.98 and 6256.07 and 3388.68
- Amino-oxoheptanedioate, Raw data [10]: 67628.76 and 66386.61 and 73890.51
- Aminoadipate, Raw data [10]: 230713.39 and 278620.19 and 273252.31
- Glutamic acid, Raw data [10]: 95052793.71 and 89933952.73 and 93441271.33
- Lysine or Methylornithine, Raw data [10]: 376867.18 and 321105.18 and 351101.87
- Saccharopine, Raw data [10]: 4344892.84 and 4372904.79 and 3935929.36
- Succinyl-diaminopimelate, Raw data [10]: 61950.05 and 84823.10 and 63130.16
- diaminopimelate, Raw data [10]: 182757.00 and 205469.42 and 201059.38

Structure (SMILES): CC(=O)NC[C@H]1CN(c2ccc(N3CCOCC3)c(F)c2)C(=O)O1 [Linezolid, linezolid]
- CFU/ml, Day 0 (M. tuberculosis H37Rv [11]): 103000 CFU/ml
- CFU/ml, Day 2 (M. tuberculosis H37Rv [11]): 400000 CFU/ml and 600000 CFU/ml
- CFU/ml, Day 4 (M. tuberculosis H37Rv [11]): 140000 CFU/ml and 70000 CFU/ml
- CFU/ml, Day 7 (M. tuberculosis H37Rv [11]): 70000 CFU/ml and 53000 CFU/ml
- CFU/ml, Day 14 (M. tuberculosis H37Rv [11]): 8600 CFU/ml and 7100 CFU/ml
- IC50 (HepG2 cells [5]; HepG2, read-out: JG IC50): > 100 µM
- COX1 production [7]: selective inhibition of COX1 production
- IC50 ([9]; HepG2, read-out: SDH-A IC50): > 100 µM

Structure (SMILES): COc1c(N2C[C@@H]3CCCN[C@@H]3C2)c(F)cc2c(=O)c(C(=O)O)cn(C3CC3)c12 [Moxifloxacin]
- MIC, +1mM Lysine (M. tuberculosis H37Rv [12]): 2.04 and 3.47
- MIC, +1mM Lysine, Ave (M. tuberculosis H37Rv [12]): 2.75
- MIC, No Lysine (M. tuberculosis H37Rv [12]): 1.02 and 1.45
- MIC, No Lysine, Ave (M. tuberculosis H37Rv [12]): 1.23
- logCFUs per mouse (lungs) (M. tuberculosis): 2.5 logCFUs per mouse (2×) and 2.3 logCFUs per mouse and 1.9 logCFUs per mouse and 2.2 logCFUs per mouse
- logCFUs per mouse (lungs), Mean (M. tuberculosis): 2.3 logCFUs per mouse
- logCFUs per mouse (lungs) (M. tuberculosis H37Rv [13]): 3.2 logCFUs per mouse and 3.3 logCFUs per mouse (2×) and 2.4 logCFUs per mouse and 2.9 logCFUs per mouse and 3.5 logCFUs per mouse and 3.8 logCFUs per mouse (2×) and 2.6 logCFUs per mouse
- logCFUs per mouse (lungs), Mean (M. tuberculosis H37Rv [13]): 3 logCFUs per mouse and 3.4 logCFUs per mouse

Structure (SMILES): O=[N+]([O-])c1cn2c(n1)OC[C@@H](OCc1ccc(OC(F)(F)F)cc1)C2 [Pa, pretomanid]
- logCFUs per mouse (lungs) (M. tuberculosis H37Rv [14]): 4.68 logCFUs per mouse and 4.53 logCFUs per mouse and 4.19 logCFUs per mouse and 4.48 logCFUs per mouse and 4.10 logCFUs per mouse
- logCFUs per mouse (lungs), Mean (M. tuberculosis H37Rv [14]): 4.4 logCFUs per mouse
- change in lung CFU over the treatment period (M. tuberculosis H37Rv [14]; mouse): significant decrease in CFU

Structure (SMILES): CO[C@H]1/C=C/O[C@@]2(C)Oc3c(C)c(O)c4c(O)c(c(/C=N/N5CCN(C)CC5)c(O)c4c3C2=O)NC(=O)/C(C)=C\C=C\[C@H](C)[C@H](O)[C@@H](C)[C@@H](O)[C@@H](C)[C@H](OC(C)=O)[C@@H]1C [Rifampicin, rifampicin]
- CFU/ml, Day 0 (M. tuberculosis H37Rv [11]): 103000 CFU/ml
- CFU/ml, Day 2 (M. tuberculosis H37Rv [11]): 270000 CFU/ml and 190000 CFU/ml
- CFU/ml, Day 7 (M. tuberculosis H37Rv [11]): 5000 CFU/ml and 5100 CFU/ml
- CFU/ml, Day 14 (M. tuberculosis H37Rv [11]): 440 CFU/ml and 430 CFU/ml

Structure (SMILES): O=C(N[C@H](CO)[C@H](O)c1ccc([N+](=O)[O-])cc1)C(Cl)Cl [chloramphenicol]
- IC50 (HepG2 cells [5]; HepG2, read-out: JG IC50): > 100 µM
- COX1 production [7]: selective inhibition of COX1 production
- IC50 [7]: 4.44 µM and 3.97 µM and 4.95 µM
- IC50 ([8]; HepG2, read-out: Cox IC50): 5.11 µM
- IC50 ([8]; HepG2, read-out: Cox IC50, Ave): 4.6 µM
- IC50 ([9]; HepG2, read-out: SDH-A IC50): > 100 µM

Structure (SMILES): NNC(=O)c1ccncc1 [isoniazid]
- MIC, +1mM Lysine (M. tuberculosis H37Rv [12]): 2.82 and 2.63
- MIC, +1mM Lysine, Ave (M. tuberculosis H37Rv [12]): 2.72
- MIC, No Lysine (M. tuberculosis H37Rv [12]): 3.02 and 3.39
- MIC, No Lysine, Ave (M. tuberculosis H37Rv [12]): 3.20
